From patent US20230107642A1 (Erasca, Inc., priority 2020, published 2023)

The molecules below were run against T1, Cys12 of the KRAS 4B G12C protein (Homo sapiens, UniProt P01116, G12C) (assay: In vitro covalent adduct formation (CAF) assay, LC-MS intact mass). Settings: 10 uM compound, 60 min.
T1 construct: This protein contained 188 amino acids in total, including an N-terminal 6-Histidine tag; made in house; host or cells: E. coli BL21
Format: binding
In short: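 GDP-loaded (>95%) His-TEV-tagged KRAS 4B G12C (residues 1–169), 5 μM in TBS pH 7.4, incubated with 10 μM compound (4% DMSO) at 22° C for one hour. Intact-protein LC-MS gave free:adduct ratios, reported as percent protein modified; duplicate runs.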

SMILES	% CAF 10 uM @ 60 min [%]
C=CC(=O)N1[C@H](C)CN(c2nc(=O)n3c4c(c(-c5cccc6cnn(C)c56)c(C(F)(F)F)cc24)SC[C@@H]3CN2CCN(C3CC3)CC2)C[C@@H]1C (atropisomer, axis not shown) [Example 1412, (3S,10S)-7-((3S,5R)-4-acryloyl-3,5-dimethylpiperazin-1-yl)-3-((4-cyclopropylpiperazin-1-yl)methyl)-10-(1-methyl-1H-indazol-7-yl)-9-(trifluoromethyl)-2,3-dihydro-5H-[1,4]thiazino[2,3,4-ij]quinazolin-5-one]	85.4
C=CC(=O)N1[C@H](C)CN(c2nc(=O)n3c4c(c(-c5cc(Cl)c(F)cc5F)c(C(F)(F)F)cc24)SC[C@@H]3COCOC)C[C@@H]1C (atropisomer, axis not shown) [Example 1370, (3S,10R)-7-((3S,5R)-4-acryloyl-3,5-dimethylpiperazin-1-yl)-10-(5-chloro-2,4-difluorophenyl)-3-((methoxymethoxy)methyl)-9-(trifluoromethyl)-2,3-dihydro-5H-[1,4]thiazino[2,3,4-ij]quinazolin-5-one]	94.4
C=CC(=O)N1CCN(c2nc(=O)n3c4c(c(-c5ccc(F)cc5F)c(C(F)(F)F)cc24)SC[C@@H]3CN2CCN(CC)CC2)CC1 (atropisomer, axis not shown) [Example 1318, (3S,10R)-7-(4-acryloylpiperazin-1-yl)-10-(2,4-difluorophenyl)-3-((4-ethylpiperazin-1-yl)methyl)-9-(trifluoromethyl)-2,3-dihydro-5H-[1,4]thiazino[2,3,4-ij]quinazolin-5-one]	99.6

Further lines, results first:

% CAF 10 uM @ 60 min [%]	SMILES
66	C=CC(=O)N1C[C@H](C)N(c2nc(=O)n3c4c(c(-c5cc(Br)c(F)cc5F)c(C(F)(F)F)cc24)SCC2(CCOCC2)C3)C[C@H]1C [Example 1455, 8′-((2S,5R)-4-Acryloyl-2,5-dimethylpiperazin-1-yl)-11′-(5-bromo-2,4-difluorophenyl)-10′-(trifluoromethyl)-2,3,5,6-tetrahydro-2′H,4′H,6′H-spiro[pyran-4,3′-[1,4]thiazepino[2,3-4-ij]quinazolin]-6′-one]
64.8	C=CC(=O)N1C[C@H](C)N(c2nc(=O)n3c4c(c(-c5ccc(F)cc5)c(C(F)(F)F)cc24)SC[C@@H]3CN2C[C@@H]3C[C@H]2CO3)C[C@H]1C [Example 1351, (S)-3-(((1S,4S)-2-oxa-5-azabicyclo[2.2.1]heptan-5-yl)methyl)-7-((2S,5R)-4-acryloyl-2,5-dimethylpiperazin-1-yl)-10-(4-fluorophenyl)-9-(trifluoromethyl)-2,3-dihydro-5H-[1,4]thiazino[2,3,4-ij]quinazolin-5-one]
93	C=CC(=O)N1[C@H](C)CN(c2nc(=O)n3c4c(c(-c5ccc(F)cc5F)c(C(F)(F)F)cc24)SCC(CO)(CO)C3)C[C@@H]1C [Example 1442, 8-((3S,5R)-4-acryloyl-3,5-dimethylpiperazin-1-yl)-11-(2,4-difluorophenyl)-3,3-bis(hydroxymethyl)-10-(trifluoromethyl)-3,4-dihydro-2H,6H-[1,4]thiazepino[2,3,4-ij]quinazolin-6-one]
96.8	C=CC(=O)N1CCN(c2nc(=O)n3c4c(c(-c5ccc(F)cc5F)c(C(F)(F)F)cc24)SC[C@@H]3CN2C[C@@H]3C[C@H]2CO3)CC1 (atropisomer, axis not shown) [Example 1306, (3S,10S)-3-(((1S,4S)-2-oxa-5-azabicyclo[2.2.1]heptan-5-yl)methyl)-7-(4-acryloylpiperazin-1-yl)-10-(2,4-difluorophenyl)-9-(trifluoromethyl)-2,3-dihydro-5H-[1,4]thiazino[2,3,4-ij]quinazolin-5-one]
45	C=CC(=O)N1C[C@H](C)N(c2nc(=O)n3c4c(c(-c5cc(Br)c(F)cc5F)c(C(F)(F)F)cc24)SCC2(COC2)C3)C[C@H]1C (atropisomer, axis not shown) [Example 1446, (S)-8′-((2S,5R)-4-Acryloyl-2,5-dimethylpiperazin-1-yl)-11′-(5-bromo-2,4-difluorophenyl)-10′-(trifluoromethyl)-2′H,4′H,6′H-spiro[oxetane-3,3′-[1,4]thiazepino[2,3,4-ij]quinazolin]-6′-one]
96.1	C=CC(=O)N1[C@H](C)CN(c2nc(=O)n3c4c(c(-c5ccc(F)cc5)c(C(F)(F)F)cc24)SC[C@@H]3CN2C[C@@H]3C[C@H]2CO3)C[C@@H]1C [Example 1352, (S)-3-(((1S,4S)-2-oxa-5-azabicyclo[2.2.1]heptan-5-yl)methyl)-7-((3S,5R)-4-acryloyl-3,5-dimethylpiperazin-1-yl)-10-(4-fluorophenyl)-9-(trifluoromethyl)-2,3-dihydro-5H-[1,4]thiazino[2,3,4-ij]quinazolin-5-one]

Same assay, conditions: 10 uM compound, 60 min incubation

SMILES	% CAF 10 uM @ 60 min [%]
C=CC(=O)N1[C@H](C)CN(c2nc(=O)n3c4c(c(-c5cc(Cl)c(F)cc5F)c(C(F)(F)F)cc24)SC[C@@H](N2CCCC2)C3)C[C@@H]1C (atropisomer, axis not shown) [Example 1138, (3S,11S)-8-((3S,5R)-4-acryloyl-3,5-dimethylpiperazin-1-yl)-11-(5-chloro-2,4-difluorophenyl)-3-(pyrrolidin-1-yl)-10-(trifluoromethyl)-3,4-dihydro-2H,6H-[1,4]thiazepino [2,3,4-ij]quinazolin-6-one]	50.5
C=CC(=O)N1[C@H](C)CN(c2nc(=O)n3c4c(c(-c5ccc(F)cc5)c(C(F)(F)F)cc24)SC[C@@H](N2CCOCC2)C3)C[C@@H]1C [Example 1134, (S)-8-((3S,5R)-4-acryloyl-3,5-dimethylpiperazin-1-yl)-11-(4-fluorophenyl)-3-morpholino-10-(trifluoromethyl)-3,4-dihydro-[1,4]thiazepino [2,3,4-ij]quinazolin-6(2H)-one]	76.8
C=CC(=O)N1CCN(c2nc(=O)n3c4c(c(-c5ccc(F)cc5)c(C(F)(F)F)cc24)SCC2(COC2)C3)CC1 [Example 1116, 8′-(4-acryloylpiperazin-1-yl)-11′-(4-fluorophenyl)-10′-(trifluoromethyl)-2′H,4′H,6′H-spiro[oxetane-3,3′-[1,4]thiazepino [2,3,4-ij]quinazolin]-6′-one]	98.4
C=CC(=O)N1C[C@H](C)N(c2nc(=O)n3c4c(c(-c5cc(Cl)c(F)cc5F)c(C(F)(F)F)cc24)SCC2(COC2)C3)C[C@H]1C (single isomer, unassigned) [Example 1121]	95.5

Same assay, conditions: 10 μM compound, after 1 hour

SMILES	CAF (% after 1 hour) [%]
C=CC(=O)N1CCN(c2nc(=O)n3c4c(c(-c5cc(Cl)c(F)cc5F)c(C(F)(F)F)cc24)SC[C@@H](OC)C3)[C@@H]2CS(=O)(=O)C[C@@H]21 [Example 1211, (3S)-8-((4aR,7aS)-4-acryloyl-6,6-dioxidohexahydrothieno[3,4-b]pyrazin-1(2H)-yl)-11-(5-chloro-2,4-difluorophenyl)-3-methoxy-10-(trifluoromethyl)-3,4-dihydro-2H,6H-[1,4]thiazepino[2,3,4-ij]quinazolin-6-one]	97
C=CC(=O)N1[C@H](C)CN(c2nc(=O)n3c4c(c(-c5ccc(F)cc5C#N)c(C(F)(F)F)cc24)SC[C@@H](OC)C3)C[C@@H]1C [Example 1226, 2-((3S)-8-((3S,5R)-4-Acryloyl-3,5-dimethylpiperazin-1-yl)-3-methoxy-6-oxo-10-(trifluoromethyl)-3,4-dihydro-2H,6H-[1,4]thiazepino[2,3,4-ij]quinazolin-11-yl)-5-fluorobenzonitrile]	81
C=CC(=O)N1CCN(c2nc(=O)n3c4c(c(-c5cc(Cl)c(F)cc5F)c(C(F)(F)F)cc24)SC[C@@H](OC)C3)[C@@H]2COC[C@@H]21 [Example 1213, (3S)-8-((4aR,7aS)-4-acryloylhexahydrofuro[3,4-b]pyrazin-1(2H)-yl)-11-(5-chloro-2,4-difluorophenyl)-3-methoxy-10-(trifluoromethyl)-3,4-dihydro-2H,6H-[1,4]thiazepino[2,3,4-ij]quinazolin-6-one]	59

Same assay, conditions: after 60 min

SMILES	CAF (% binding after 60 min) [%]
C=CC(=O)N1CCN(c2nc(=O)n3c4c(c(-c5cc(Cl)c(F)cc5F)c(C(F)(F)F)cc24)SC[C@H](OCOC)C3)CC1 [Example 1008, (3R)-8-(4-acryloylpiperazin-1-yl)-11-(5-chloro-2,4-difluorophenyl)-3-(methoxymethoxy)-10-(trifluoromethyl)-3,4-dihydro-2H,6H-[1,4]thiazepino[2,3,4-ij]quinazolin-6-one]	92
C=CC(=O)N1CCN(c2nc(=O)n3c4c(c(-c5ccc(F)cc5)c(C(F)(F)F)cc24)SC[C@@H](OCCOC)C3)CC1 [Example 1017, (S)-8-(4-acryloylpiperazin-1-yl)-11-(4-fluorophenyl)-3-(2-methoxyethoxy)-10-(trifluoromethyl)-3,4-dihydro-2H,6H-[1,4]thiazepino[2,3,4-ij]quinazolin-6-one]	98
C=CC(=O)N1[C@H](C)CN(c2nc(=O)n3c4c(c(-c5ccc(F)cc5)c(Cl)cc24)SC[C@H](OC)C3)C[C@@H]1C [Example 1039, (R)-8-((3S,5R)-4-acryloyl-3,5-dimethylpiperazin-1-yl)-10-chloro-11-(4-fluorophenyl)-3-methoxy-3,4-dihydro-2H,6H-[1,4]thiazepino[2,3,4-ij]quinazolin-6-one]	96
C=CC(=O)N1CCN(c2nc(=O)n3c4c(c(-c5ccc(F)cc5)c(C(F)(F)F)cc24)SC[C@@H](OC)C3)CC1 [Example 1038, (S)-8-(4-acryloylpiperazin-1-yl)-11-(4-fluorophenyl)-3-methoxy-10-(trifluoromethyl)-3,4-dihydro-2H,6H-[1,4]thiazepino[2,3,4-ij]quinazolin-6-one]	97
